Test results reported in patent publication EP1370276B1, “INTERCELLULAR COMMUNICATION FACILITATING COMPOUNDS AND THEIR MEDICAL USE” (Zealand Pharma A/S, priority 2001, dated 2002).
[ ]: non-standard residue; d: D form. Hyp = O=C(O)[C@@H]1C[C@@H](O)CN1

Columns and labels:
[1] = biological target: murine heart tissue preparations; assay: Displacement of [125I]AAP10 from murine heart tissue preparations; type: binding, mice; conditions: displacement of 0.8 nM [125I]AAP10, filtrate; read-out: Filtrate IC50
Protocol: Hearts are excised from mice (Balb/cJ, 20 g), rinsed twice in ice-cold (0°C) 0.32 M sucrose and homogenized on ice in 10 volumes of sucrose with an Ultra Turrax homogeniser (1000 rpm) for 2 minutes. The homogenate is centrifuged at 1000 gmea" for 10 minutes at 4° C and the supernatant collected and filtrated through 4 layers of gauze. The filtrate is then centrifuged at 50,000 gmean for 45 min at 4° C and the pellet resuspended in 10 volorg. wet weight ice-cold distilled water and incubated for 60 min at 0° C and re-centrifuged at 50,000 gmean at 45 min at 4° C. The resulting pellet is resuspended in 2 vol org. wet weight of PBS (Phosphate Buffered Saline) and stored at - 80° C until use.

CHO cells = assay: In situ binding of [125I]AAP10 on intact CHO cells; conditions: overnight at 4° C
Protocol: CHO cells are seeded in 24-multi well dishes in a density of 7,900 cells/cm^2 (∼ 15,000 cells/well) and grown for 3 Days In Vitro (DIV) in 1 ml/well of F-12K Nutrient Mixture supplemented with 10% Foetal Calf Serum (FCS) and 1000 units penicillin/1000 µg streptomycin (pen/strep) in an atmosphere of 5% CO2 and 100% humidity at 37° C. The cell density has at that time increased to 295,000 cells/cm^2 (152 pgprot/cell ∼ 85 µgprot/well).
On the day of analysis cells are removed from the incubator and each well is washed twice with, depending on the experiment, either 2 ml pre-warmed (37 °C) or ice-cold (0 °C) D-PBS to remove serum. It is important to keep the period to a minimum during which cells are left without physiological solutions to avoid that they dry out during washing procedures. The cold washed cells are used directly for binding assays while the warm washed cells are used for experiments with glucose and oxygen deprivation.
The in situ binding is performed by a modified protocol based on the description by Koenig. […] Cells incubate overnight at 4° C to reach equilibrium. Each well, one at the time, is then rinsed rapidly with 2 x 1 ml D-PBS and left to dry.
0.25 ml of 0.5 % Triton-X-100 (v/v) is added to each well and cells left for at least 1 h to solubilize. The extract is transferred to counting vials, the wells rinsed with 0.25 ml water and the rinse extract added to the corresponding vials. The vials are counted in a γ-counter. Table 3. In situ binding, IC50 (nM).

[2] = tested on: cAMP formation in CHO cells; assay: Inhibition of forskoline stimulated cAMP formation in CHO cells; type: cell-based; conditions: 10 µM forskoline, 20 min, cells pre-treated with glucose and oxygen deprivation
Protocol: CHO cells are seeded in 96-well microtiter plates in a density of 6,000 cells/cm^2 (∼ 2,000 cells/well) and grown for 4 days in vitro in 200 µl/well of growth media as described in the previous section.
On the day of analysis cells are removed from the incubator and washed twice with 200 µl pre-warmed (37°C) D-PBS (pH 7.2) to remove serum. Cells are incubated for 10 min in glucose free D-PBS and an N2-atmosphere as described in the previous section.
CHO cells are incubated at 37° C in D-PBS (pH 7.2) containing 6 mM glucose, 2.0 mM IBMX (phospodiesterase blocker), 10 µM forskoline (stimulates cAMP formation) and increasing concentrations of test peptide. The reaction is stopped after 20 min by addition of 20 µl 0.5 M HCl and left for at least 20 min at room temperature.
The content of cAMP is analysed by mixing 20 µl of the acid cell extract into FlashPlate™ wells (NEN assay kit SMP001) containing 180 µl [^12SI]cAMP tracer solution. FlashPlates™ are incubated overnight at 4° C and plate bound radioactivity counted in TopCount (Packard Instrument). Data are calculated as described in the previous section.

[3] = tested on: phosphoinositol turnover in rat primary cardiomyocytes; assay: Phosphoinositol turnover in primary cardiomyocyte cultures; type: cell-based; conditions: for EC50: enhancement of phospho-inositol turnover
Protocol: Neonatal Wistar rats (1-2 days old) are used. Hank's calcium- and magnesium-free balanced salt solution, buffered with 10 mM HEPES is used for washing during cell separation procedures. The hearts are excised, the ventricles isolated and the tissue cut into small pieces. The myocardial cells are isolated by stepwise enzymatic degradation with collagenase 0.05%, as described by ^[35]. After repeated rounds of centrifugation and washing, the precipitated cells are resuspended in culture medium M199 with Earle's salt, 10% NCS, penicillin (75 U/mL), and streptomycin (75 U/mL) and pre-plated in a Petri dish for 90 minutes. The non-adherent cells are collected in the culture medium and plated in multidishes at 2.5*10^5 cells/well. The cultures are kept in a water-saturated CO2-incubator at 37°C. The cardiomyocyte cultures are used for analyses after 6-7 days.
Cardiomyocyte cultures are incubated for 48 hours in culture medium containing 4 µCi/mL myo-[2-^3H]inositol to label the inositol phospholipids. On the day of analysis the medium is replaced by a buffer solution containing lithium and incubated at 37°C, as described by Meier et al. ^[36]. After at least five minutes this buffer is replaced by the same volume of buffer containing test compound and incubated for exactly 20 minutes. The reaction is stopped by rapid replacement of the buffer by ice cold 4%v/v perchloric acid (PCA) and incubation for at least 20 minutes at 0°C. The PCA-extract is neutralised and the [^3H]inosltol phosphates are separated by anion-exchange chromatography using Amprep™ columns containing 100 mg SAX Quaternary amine. The [^3H]inositol mono-phosphates are eluted and radioactivity in the fraction measured by liquid scintillation counting.
Before adding test substances to the cultures, the cells are depleted of glucose and oxygen by incubating them in a N2-atmosphere in glucose-free lithium-buffer for 10 minutes at 37°C. Control cells are incubated likewise only at normal atmospheric conditions and in a buffer containing glucose.

[4] = tested on: calcium-induced arrythmias; assay: Calcium-induced arrhythmia model in mice (time to 2nd degree AV-block); type: in vivo; conditions: for CaCl2 mice Score / CaCl2 mice In vivo, %: calcium chloride induced arrythmia model; for CaCl2 mice Score: no key for the score
Protocol: The antiarrhythmic effects of compounds of this invention were tested in an in vivo model of calcium-induced arrythmias according to the model of Lynch et al. ^[37]. […]. Commercial solutions of hypnorm and midazolam were diluted 1:1 in distilled water and one part diluted Hypnorm® is mixed with one part diluted midazolam.
The anaesthesia was induced by s.c. administration in a dose of […]. An i.v. cannula was inserted into the tail vein. The lead II ECG signal was recorded continuously by positioning of a stainless steel ECG electrodes on the right forelimb and on the left hind limb. The ground electrode was placed on the right hind limb. The signal was amplified (x 5.000-10.000) and filtered (0.1-150 Hz) via a Hugo Sachs Electronic model 689 ECG module. The analogue signal was digitised via a 12 bit data acquisition board (Data Translation model DT321) and sampled at 1000 Hz using the Notocord HEM 3.1 software for Windows NT. After a 10-min equilibration period, the test sample of drug was injected into the tail vein. Mice pre-treated with vehicle were tested as a measure of the control level in untreated animals. The injection volume was 100 µl in all experiments. Infusion of CaCl2 (30 mg/ml, 0.1 ml/min ≈ 100 mg/kg/min (calciumchlorid-2-hydrat, Riedel-de Haën, Germany)) was started 3 min after i.v. administration of drug or vehicle. The time lag to onset of 2nd degree AV-block was determined as the time from the start of CaCl2 infusion until the first arrhythmic event occured. An event of 2nd degree AV-block was defined as intermittent failure of the AV conduction characterised by a P-wave without the concomitant QRS complex.
Responses were expressed relative to the time until 2nd degree AV-block occurred in vehicle treated mice.

[5] = tested on: isolated perfused rabbit hearts; assay: Isolated perfused rabbit heart (Langendorff), APD90 dispersion during hypokalemic ischemia; conditions: 10^-10 mol/l
[6] = In vitro plasma and serum stability, rabbit; type: in vitro ADME; conditions: 37°C
Protocol: (§1) The stability of peptides is analysed in serum and plasma. The peptides are incubated at 37°C in plasma or serum and samples taken at approx. 9 regular intervals between t=0 and t=156 min are analysed by HPLC.
This is done by subsequent injections of the drug, plasma, and a co-injection with the drug and the plasma, followed by optimisation of the LC method parameters until a satisfactory separation is obtained. Three parallel experiments are performed for each plasma type.[…] at t = 0 and incubated at 37°C (drug-plasma mixture conc. 0.1 mg/ml). Samples of 100 ml of the drug-plasma mixture are removed at appropriate intervals and the degradation stopped by precipitation of the sample with 10 ml MeCN:TFA 50:50 v/v. A control plasma sample without the drug treated in the same manner is also taken. The plasma samples are centrifuged for 15 min. at 12,000 rpm (Eppendorf centrifuge) at ambient temperature. The resulting supernatant solution is transferred to 300 ml HP autosamler vials and analyzed by HPLC. The samples are analyzed in the following order: blank, the peptide at 0.1 mg/mL, the plasma without the peptide, the three parallel samples for t = 0, the three parallel samples for t = 5 min. the three parallel samples for t = 10 min. etc. […]

[7] = In vitro plasma and serum stability, human; type: in vitro ADME; conditions: for T1/2 PLASMA, HEPARIN HUMAN: 37°C
Protocol: as §1
This is done by subsequent injections of the drug, plasma, and a co-injection with the drug and the plasma, followed by optimisation of the LC method parameters until a satisfactory separation is obtained. Three parallel experiments are performed for each plasma type.100 ml of peptide is mixed with 900 ml plasma at t = 0 and incubated at 37°C (drug-plasma mixture conc. 0.1 mg/ml). Samples of 100 ml of the drug-plasma mixture are removed at appropriate intervals and the degradation stopped by precipitation of the sample with 10 ml MeCN:TFA 50:50 v/v. A control plasma sample without the drug treated in the same manner is also taken. The plasma samples are centrifuged for 15 min. at 12,000 rpm (Eppendorf centrifuge) at ambient temperature. The resulting supernatant solution is transferred to 300 ml HP autosamler vials and analyzed by HPLC. The samples are analyzed in the following order: blank, the peptide at 0.1 mg/mL, the plasma without the peptide, the three parallel samples for t = 0, the three parallel samples for t = 5 min. the three parallel samples for t = 10 min. etc. And finally the three parallel samples for t = 0 are repeated to make sure that there have been no degradation or other failure during the analyses. The sample concentrations (peak height in mAU) are plotted vs. time and fitted to a function describing a mono exponential decay (Excel). […] Table 7. Results of in vitro stability test in plasma and serum, T1/2 in min and hrs

| Substance | IC50 [1] [µM] | IC50 (CHO cells) [µM] | EC50 [2] [µM] | EC50 value relative to the EC50 value for Compound 2 ([3]; during metabolic stress induced by anoxia and glucose deprivation) [fold] | EC50 value relative to the EC50 value for Compound 2 ([3]; during normoxia) [fold] | EC50 ([3]; Glucose and oxygen deprivation) [µM] | EC50 ([3]; Normal conditions) [µM] | CaCl2 mice Score [4] | In vivo activity ([4]; maximal effect, increase in time until 2nd degree AV-block relative to vehicle, i.v.) | increase in APD90 dispersion during hypokalemic, acute myocardial ischemia [5] | CaCl2 mice In vivo, % [4] | T1/2 PLASMA, HEPARIN RABBIT [6] | T1/2 PLASMA, HEPARIN HUMAN [7] | Human plasma half life [7] [h] |
| --- | --- | --- | --- | --- | --- | --- | --- | --- | --- | --- | --- | --- | --- | --- |
| H-GAG[Hyp]PY-NH2 [AAP10, reference compound] | 0.0012 | 0.13 | 0.011 | 10 | 200 | 0.1 | 2 | 3 | +++ (+++ refers to >60% increase in time until arrhythmia) | ineffective |  |  |  |  |
| cyclo(GAG[Hyp]PYN) |  |  |  |  |  |  |  | 2 |  |  | 57 +/- 8% | 30 hrs ± 8% | 9 hrs ± 1% | 13 |
| cyclo(GAG[Hyp]PYQ) |  |  |  |  |  |  |  | 2 |  |  | 48 +/- 14% | 14 hrs ± 2% | 15 hrs ± 1% | 15 |
